We go through 92 molecules from a melting point compilation (Tetko et al.; mined from patent text by program, amines drawn as free bases though some values may be those of a salt).

Usually melting point stands for the temperature, or range, at which the solid turns liquid.

The structures appear in SMILES notation.

For `CCCC(=O)NCCC1CCc2c(OC)ccc3ccc(OC)c1c23` (configuration not stated), the melting point is 99 °C.
In turn, `CCC(=NO)c1ccncc1` had a melting point of 141 to 144 °C.
In the case of `O=S(c1ccccc1)c1ncc(Cl)cc1F` (configuration not stated), the melting point lay within 77 to 78 °C.
On to `COc1ccc(CC2CNC(=O)N2)cc1O` (configuration not stated), for which the melting point fell in the range of 192 to 202 °C.
For the molecule `O=C(CC(=O)c1ccccc1)Nc1ccccc1NC(=O)CC(=O)c1ccccc1`, the melting point fell in the range of 202 to 204 °C.
As for `O=C1C(=NO)Nc2c(Br)cccc21`, the melting point is > 250 °C.
`Cc1nc2ccccc2nc1Oc1ccc(OCc2ccccc2)cc1` displayed a melting point of 99 to 102 °C.
`O=C(O)C1CSC(c2ccccc2OCCCO[N+](=O)[O-])N1` (configuration not stated) showed a melting point of 131 to 134 °C.
As to `Cc1cc(Cc2ccccc2)nc(Nc2ccc(-n3cnc(C)n3)c(F)c2)n1`, the melting point was in the range of 183 to 185 °C.
On to `O=S(=O)(Oc1cccc(OCCC(c2ccccc2)(c2ccccc2)c2ccccc2)c1)c1ccccc1`, for which the melting point fell in the range of 124 to 125 °C.
On to `O=C(O)c1cc2cc(C3CCCCC3)ccc2nn1`, for which the melting point was in the range of 159 to 161 °C.
As for `CCCCCCCCCCCCc1ccccc1C(Sc1nc(C)c(C(=O)O)n1C)C(=O)O` (configuration not stated), the melting point was 104 to 106 °C.
Next, `CC(=O)Nc1c(-c2ccccc2)nn2ccccc12`: 188 to 189 °C; `Clc1ccc(C2=NNC(c3cccnc3)S2)cc1` (configuration not stated): 106 to 108 °C.
With `O=C(OC1CCCCC1)C1=C(O)c2ccccc2S(=O)(=O)N1`, the melting point stood at 158 °C.
Next, `CCCCC(O)CN1CCC2(CC1)CSC1=C(O2)c2ccccc2C(=O)C1=O` (configuration not stated): 160 to 163 °C; `CCCN(CCC)C(=O)CNc1nc(-c2ccccc2)nc(C(C)C)c1C`: 98 to 99 °C; `COc1ccc(CN2C(=O)[C@@H](NC(=O)Cc3ccccc3)[C@H]2CI)c(OC)c1` (relative stereo): 181 to 182 °C.
For `CCC(=C1SCCCS1)c1ccc(Oc2ccccc2)cc1` the value was 53 to 54 °C; for `CCc1nn(C2CCCC2)c2nc(COS(C)(=O)=O)nc(OS(C)(=O)=O)c12`, 114 to 116 °C; for `O=C1CC(c2cccc(-n3cnnc3)c2)=Nc2ccc(-c3ccccc3F)cc2N1`, 198 °C.
Molecule `COc1ccc(CN(C)C(=O)CCCOc2ccc3c(c2)CN2CC(=O)NC2=N3)cc1` showed a melting point of 256 to 258 °C.
Next, `CCOC(=O)C1CCN(c2ccc([N+](=O)[O-])c(C=C3NC(=O)NC3=O)c2)CC1`: 221 to 223 °C; `Cc1oc(-c2ccccc2)nc1CCOc1ccc(S(=O)(=O)Nc2cc(Cl)ccc2C(=O)O)cc1`: 223 to 225 °C; `C=CCc1ccc(C[C@H](NC(=O)OC(C)(C)C)C(=O)OC)cc1`: 56 to 59 °C.
`CN1C(=O)C(NC(=O)c2cc3ccccc3[nH]2)C(=O)N(c2ccccc2)c2cc(Cl)ccc21` (configuration not stated) yielded a melting point of 280 °C.
`COc1ccc(C(=O)c2ccccc2)c(S)c1` came in with a melting point of 74 to 76 °C.
With `O=C1CCc2cc(N/C(=C3\C(=O)Nc4ccc([N+](=O)[O-])cc43)c3ccccc3)ccc2N1`, the melting point was > 300 °C.
In the case of `CNc1nn(C)c2nc3n(c(=O)c12)CCS3`, the melting point was 255 to 256 °C.
For `O=C(O)c1cc2nc3n(c2cc1Cl)CCC3` the value was > 270 °C.
The molecule `CCCc1nn(C)c2c(=S)[nH]c(-c3ccccc3OC)nc12` showed a melting point of 160 to 161 °C.
`O=C1CCCC(c2ccc(Cl)cc2)O1` (configuration not stated) came in with a melting point of 110 to 111 °C.
In the case of `CNCCc1ccc(CCC(=O)O)cc1`, the melting point was in the range of 211 to 212 °C.
Molecule `CC(=O)C1=C(O)C(C(=O)C=Cc2ccc(C)cc2)C(=O)OC1=O` (configuration not stated) registered a melting point of 188 to 190 °C.
The molecule `COc1ccc(-c2nc(NC(=N)N)sc2-c2ccc(OC)cc2)cc1` yielded a melting point of 121 to 130 °C.
Next, `CC1(C)CN(c2ncc(C(=O)N(CC3CC3)c3cccc(C(F)(F)F)c3)c(N)n2)C(=O)N1`: 193 to 194 °C; `Cc1cc(Sc2ccc([N+](=O)[O-])cc2)cc(Br)n1`: 124 to 126 °C.
Next, `CCOc1ccc(-c2cc(Nc3ccc(OC)c(Cl)c3)nc(NC(C)=O)n2)cc1`: 214 °C; `COc1ncccc1-c1cncc(OC2SCC(OC(C)=O)C(OC(C)=O)C2OC(C)=O)c1` (configuration not stated): 167 °C.
Molecule `CCCCCC(c1ccccc1C(F)(F)F)C(C(N)=O)c1cc(C(=O)O)ccc1C(C)(C)C` (configuration not stated) yielded a melting point of 199 to 200 °C.
`CC(C)Sc1c(C2=NC(C)(C)CO2)oc(Br)c1Br` came in with a melting point of 71 to 72 °C.
`Cc1oc(-c2ccccc2)nc1CCOc1ccc(CC(Nc2ccccc2C(=O)c2ccccc2)C(=O)O)c2sccc12` (configuration not stated) came in with a melting point of 124 to 127 °C.
For `CCCCCN(C(=O)Cl)c1ccc2c(c1)C(C)(C)CCC2(C)C` the value was 79 to 81 °C.
`CCCc1c(C(=O)C(C)C)c2ccc(C(N)=O)cc2n1Cc1ccc(Br)cc1F` returned a melting point of 197 to 198 °C.
For `Cc1cc(NC(=O)CN(CC(=O)O)CC(=O)O)ccc1Br` the value was 206 to 209 °C; for `Cc1cc(-n2ncc(-c3ccc(S(C)(=O)=O)cc3)c(-c3ccc(F)cc3)c2=O)ccc1F`, 168 to 170 °C.
As for `CC(=O)Cc1cc2c(cc1C(=O)c1ccc([N+](=O)[O-])c(C)c1)OCO2`, the melting point fell in the range of 146 to 148 °C.
`CS(=O)(=O)c1ccc(-c2oc3ccccc3c(=O)c2-c2ccc(F)c(Cl)c2)cc1` showed a melting point of 196 °C.
Molecule `O=C(O)Cc1ccc2c(c1)CC(NS(=O)(=O)c1ccc(Cl)cc1)C2` (configuration not stated) showed a melting point of 154 to 155 °C.
As for `COc1ccc(N2CCOCC2)cc1NC(=S)C(=O)O`, the melting point is 156 to 158 °C.
For `Cn1cc(-c2nc3c(N[C@H]4[C@@H](C(N)=O)[C@@H]5C=C[C@H]4C5)c(Br)cnc3[nH]2)cn1` the value was 255 to 258 °C.
The molecule `COc1ccc(Cc2nnc(N[C@H]3CO[C@H](C(C)C)OC3)c3ccccc23)cn1` showed a melting point of 186 to 187 °C.
`Cc1ccc(N2CCOCC2)c(NC(N)=S)c1`: the melting point was in the range of 181 to 182 °C.
`CCOC(=O)N1Cc2cccc3c2c(cn3C)C1`: the melting point lay within 76 to 78 °C.
For `COc1ccc(-c2nnc(Cl)nc2-c2ccc(OC)cc2)cc1`, the melting point lay in the range of 130 to 132 °C.
Next, `Cc1cccc(C(C(O)C(C)(C)C)n2ccnc2)c1` (configuration not stated): 126 °C; `COc1ccc(Nc2nc(NCCN(C)C)nc(NC3CCCCCC3)n2)cc1F`: 73 to 76 °C.
Next, `CC(C)=NN=C(N)Nc1c(Cl)cccc1Cl`: 205 to 210 °C.
Regarding `O=C1Nc2nncn2CC1c1ccccc1` (configuration not stated), the melting point lay in the range of 184 to 186 °C.
Consider `CCOCc1nc2c(N)nc3cc(OCCCc4cccc(N)c4)ccc3c2n1CC(C)(C)O`, for which the melting point lay within 164 to 166 °C.
Next, `Oc1nc2cc(Cl)c3nccnc3c2nc1O`: > 300 °C.
With `CCOC(=O)C(=CC=C(C#N)c1ccccc1)N(C)C`, the melting point is 67 °C.
On to `Cc1cc(OCCN2CCCCC2)ccc1NC(=O)NC1C2CC3CC(C2)CC1C3` (configuration not stated), for which the melting point was determined as 196 °C.
On to `CC(=O)C(=[N+]=[N-])C(=O)CCc1ccc(S(=O)(=O)Cl)cc1`, for which the melting point lay within 58 to 59.5 °C.
`CCOC(=O)C(=NOC)C1=CSc2ccccc2O1` came in with a melting point of 78 to 80 °C.
For `Oc1ccc(Br)cc1Cc1ncc[nH]1`, the melting point fell in the range of 163 to 169 °C.
`CON=C(C)COc1c(-c2ccc(S(C)(=O)=O)cc2)cnn(-c2ccc(F)c(F)c2)c1=O` came in with a melting point of 143 to 145 °C.
Next, `CCN(CC)CCCN1C(=O)NC(Cc2c[nH]c3ccc(Cl)cc23)C1=O` (configuration not stated): 186 °C.
Next, `C=CC(O)C(NC=O)C(=O)OCC` (configuration not stated): 50 to 51 °C; `Cc1nc(NC(=O)c2cnn3c(C(F)(F)F)cc(-c4ccc(C(F)(F)F)cc4)nc23)sc1S(N)(=O)=O`: 303 °C; `CC1=N/C(=C\c2c[nH]c3ncccc23)C(=O)N1C(C)C`: 207 °C.
For `CCCCNc1nc(C)c(C(=O)OCC)c(N)c1[N+](=O)[O-]`, the melting point was 74 to 76 °C.
Take `CC(C#CCn1ccnc1)N1CCN(C)C1=O` (configuration not stated): the melting point is 89 to 92 °C.
Next, `CCc1coc2cc(OCc3ccccc3)ccc12`: 69.5 to 70.5 °C.
`COC(=O)c1cccc(OCc2c(Cl)cccc2Cl)c1` had a melting point of 96 to 98 °C.
`C#C[C@@](C)(O)CCC1=C(C)C(=O)C(C)=C(C)C1=O` displayed a melting point of 80 to 82 °C.
For `CN(C(=O)Nc1ccc(Cl)c(Cl)c1)S(=O)(=O)CCl` the value was 119 °C.
Molecule `CCS(=O)(=O)c1cc(OC)c(OC)c(C(=O)Cl)c1` gave a melting point of 67 to 68 °C.
With `COc1cccc2c(O)c(CO)cnc12`, the melting point is > 350 °C.
Take `CCCC1=C(C#N)C(c2ccccc2Cl)c2c(n[nH]c2-c2ccccc2OC)N1` (configuration not stated): the melting point was > 270 °C.
Consider `COC(=O)c1ccc(C(CCN(C)C)c2ncc[nH]2)cc1` (configuration not stated), for which the melting point lay in the range of 102 to 104 °C.
Molecule `COC(=O)c1cccc(Sc2ccc(N(C)C)cc2)c1` registered a melting point of 88 to 90 °C.
The molecule `CCOC(=O)C1Cc2c([nH]c3ccccc23)CN1C(=S)SCc1cccs1` (configuration not stated) registered a melting point of 205 to 207 °C.
The molecule `CCN(CC)C(=O)c1ccc2ccccc2c1-c1ccc(F)cc1` showed a melting point of 103 to 104 °C.
Regarding `CON(O)C(=O)c1ccccc1C(F)(F)F`, the melting point is 101 to 103 °C.
Turning to `NC(=O)N1C(=O)C(C(=O)c2ccccc2)c2ncc(Cl)cc21` (configuration not stated), the melting point was 260 °C.
Next, `O=CCOc1ccccc1OCC(F)(F)F`: 55.3 to 57.5 °C; `Cc1nnc(-c2ccc3ncc(-c4ccc(S(C)=O)cc4)n3c2)o1` (configuration not stated): 190 °C.
Turning to `CCOC(=O)c1cnc(Cl)cc1NC`, the melting point is 61.4 to 63.1 °C.
Molecule `O=[N+]([O-])c1cccc(COc2cccc3cccnc23)c1` yielded a melting point of 98 to 99 °C.
Next, `c1ccc(Cc2nc(COc3ccc(CCCn4ccnc4)cc3)co2)cc1`: 61 to 62 °C; `CC(=Cc1ccc2cc[nH]c2c1)C(=O)O`: 188 to 190 °C.
